Measured values taken from the NIST ThermoML archive (doi:10.1016/j.fluid.2013.01.003).

Conditions: 101.33 kPa, Liquid; for electrical conductivity: Alternating current cell with electrodes; for viscosity: Falling or rolling sphere viscometry; for mass density: Vibrating tube method

O=S(=O)([N-]S(=O)(=O)C(F)(F)F)C(F)(F)F.OCC[n+]1ccccc1
Conditions	electrical conductivity [S/m]	mass density [kg/m3]	viscosity [mPa·s]
273.15 K	0.0435	1614.7	645
278.15 K	0.0655	1609.2	421.9
283.15 K	0.0945	1604	285.8
288.15 K	0.132	1599.44	200.9
293.15 K	0.178	1594.47	145.7
298.15 K	0.233	1589.51	108.7
303.15 K	0.299	1584.59	83.19
313.15 K	0.461	1574.82	52.03
323.15 K	0.668	1565.16	34.91
333.15 K	0.912	1555.59	24.77
343.15 K	1.2	1546.08	18.37
353.15 K	1.52	1536.66	14.12
363.15 K	–	1527.29	11.18
